In the kinase profiling compilation of Christmann-Franck et al. (2016):

How the values were obtained:
Assay in all cases: radiometric filter-binding kinase assay, Kinase HotSpot
Details in all cases: compound 0.5 µM; ATP 10 µM
[1] = target: TSSK2 (human) (UniProt Q96PF2)
[2] = target: JAK1 JH1 catalytic (human) (UniProt P23458)
[3] = target: IRAK1 (human) (UniProt P51617)
[4] = target: ABL1 (human) (UniProt P00519)
[5] = target: PRKCH (human) (UniProt P24723)
[6] = target: PRKCD (human) (UniProt Q05655)
[7] = target: TBK1 (human) (UniProt Q9UHD2)
[8] = target: STK17A (human) (UniProt Q9UEE5)
Sequence of STK17A (human) (Q9UEE5 whole entry, looked up): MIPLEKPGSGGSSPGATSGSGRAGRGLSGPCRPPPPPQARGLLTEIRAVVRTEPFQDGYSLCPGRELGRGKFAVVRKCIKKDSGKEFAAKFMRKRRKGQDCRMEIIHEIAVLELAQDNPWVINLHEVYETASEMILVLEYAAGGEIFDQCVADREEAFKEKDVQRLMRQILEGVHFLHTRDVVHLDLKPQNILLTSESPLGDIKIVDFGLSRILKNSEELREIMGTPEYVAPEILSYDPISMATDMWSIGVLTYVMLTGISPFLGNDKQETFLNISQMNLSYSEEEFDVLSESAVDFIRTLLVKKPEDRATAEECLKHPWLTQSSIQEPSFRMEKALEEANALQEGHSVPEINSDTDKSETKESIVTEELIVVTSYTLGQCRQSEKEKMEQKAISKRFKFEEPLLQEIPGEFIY

[9] = target: CLK4 (human) (UniProt Q9HAZ1)
[10] = target: MAPKAPK5 (human) (UniProt Q8IW41)
[11] = target: NUAK1 (human) (UniProt O60285)
Sequence of NUAK1 (human) (O60285 whole entry, looked up): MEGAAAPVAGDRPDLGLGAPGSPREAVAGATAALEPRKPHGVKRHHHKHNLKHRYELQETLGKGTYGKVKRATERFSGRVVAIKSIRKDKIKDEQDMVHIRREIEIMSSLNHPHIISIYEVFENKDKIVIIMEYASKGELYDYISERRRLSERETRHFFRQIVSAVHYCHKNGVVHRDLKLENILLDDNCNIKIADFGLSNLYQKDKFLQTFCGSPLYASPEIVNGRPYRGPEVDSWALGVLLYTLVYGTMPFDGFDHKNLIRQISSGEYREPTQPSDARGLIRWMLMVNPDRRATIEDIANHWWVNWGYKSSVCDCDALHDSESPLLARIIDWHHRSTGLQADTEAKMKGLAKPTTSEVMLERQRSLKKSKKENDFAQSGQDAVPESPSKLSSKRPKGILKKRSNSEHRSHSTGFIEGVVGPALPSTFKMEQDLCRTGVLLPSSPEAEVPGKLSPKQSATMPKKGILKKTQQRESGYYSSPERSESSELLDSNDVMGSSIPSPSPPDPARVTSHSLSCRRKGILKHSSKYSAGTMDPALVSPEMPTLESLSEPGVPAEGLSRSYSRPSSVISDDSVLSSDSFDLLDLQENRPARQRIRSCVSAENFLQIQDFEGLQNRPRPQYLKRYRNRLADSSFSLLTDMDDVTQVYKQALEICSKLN

[12] = target: JAK2 JH1 JH2 (human) (UniProt O60674)
[13] = target: CSNK1G3 (human) (UniProt Q9Y6M4)
[14] = target: ABL2 (human) (UniProt P42684)
[15] = target: ROCK2 (human) (UniProt O75116)
[16] = target: PRKD2 (human) (UniProt Q9BZL6)
[17] = target: MARK4 (human) (UniProt Q96L34)
[18] = target: CSNK2A2 (human) (UniProt P19784)
[19] = target: ROS1 (human) (UniProt P08922)
[20] = target: MAPK10 (human) (UniProt P53779)
[21] = target: ROCK1 (human) (UniProt Q13464)
Sequence of ROCK1 (human) (Q13464 whole entry, looked up): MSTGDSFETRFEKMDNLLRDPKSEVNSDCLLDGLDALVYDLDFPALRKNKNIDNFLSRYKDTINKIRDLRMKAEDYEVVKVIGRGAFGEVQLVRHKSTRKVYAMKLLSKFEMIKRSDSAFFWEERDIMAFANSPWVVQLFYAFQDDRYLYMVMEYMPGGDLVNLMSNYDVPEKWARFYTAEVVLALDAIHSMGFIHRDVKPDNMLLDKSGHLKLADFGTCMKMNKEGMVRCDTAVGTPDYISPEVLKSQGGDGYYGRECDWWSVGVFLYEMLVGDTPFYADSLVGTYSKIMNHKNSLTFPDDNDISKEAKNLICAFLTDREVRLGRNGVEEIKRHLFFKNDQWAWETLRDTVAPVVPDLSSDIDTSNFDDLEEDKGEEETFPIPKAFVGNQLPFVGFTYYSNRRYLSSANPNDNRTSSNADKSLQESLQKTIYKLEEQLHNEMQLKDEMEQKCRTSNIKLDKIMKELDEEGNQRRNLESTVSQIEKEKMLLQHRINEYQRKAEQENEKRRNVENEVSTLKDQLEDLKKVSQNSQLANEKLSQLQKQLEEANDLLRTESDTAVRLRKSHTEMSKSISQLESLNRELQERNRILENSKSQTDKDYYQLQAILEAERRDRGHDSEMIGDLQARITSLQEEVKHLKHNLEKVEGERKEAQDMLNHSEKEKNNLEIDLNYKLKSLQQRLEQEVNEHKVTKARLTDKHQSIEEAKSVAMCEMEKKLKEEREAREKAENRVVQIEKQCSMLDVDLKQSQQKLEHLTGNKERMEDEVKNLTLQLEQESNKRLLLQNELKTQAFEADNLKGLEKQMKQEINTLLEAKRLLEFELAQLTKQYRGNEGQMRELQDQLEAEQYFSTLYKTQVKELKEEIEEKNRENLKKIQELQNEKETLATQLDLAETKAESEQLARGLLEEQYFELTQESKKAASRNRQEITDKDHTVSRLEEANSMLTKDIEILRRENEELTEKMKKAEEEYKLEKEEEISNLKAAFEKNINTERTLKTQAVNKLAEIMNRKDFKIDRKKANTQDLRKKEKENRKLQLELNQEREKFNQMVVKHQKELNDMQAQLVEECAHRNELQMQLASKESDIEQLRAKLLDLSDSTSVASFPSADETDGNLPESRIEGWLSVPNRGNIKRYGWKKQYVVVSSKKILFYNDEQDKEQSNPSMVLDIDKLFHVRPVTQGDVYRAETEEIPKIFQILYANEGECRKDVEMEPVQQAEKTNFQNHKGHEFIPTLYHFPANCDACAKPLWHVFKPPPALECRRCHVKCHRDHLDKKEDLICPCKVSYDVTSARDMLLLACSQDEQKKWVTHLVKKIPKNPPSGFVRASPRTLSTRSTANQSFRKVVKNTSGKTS

[22] = target: PIM3 (human) (UniProt Q86V86)
[23] = target: BRAF (human) (UniProt P15056)
[24] = target: CHEK1 (human) (UniProt O14757)
[25] = target: IKBKB (human) (UniProt O14920)
[26] = target: CAMK2D (human) (UniProt Q13557)
Sequence of CAMK2D (human) (Q13557 whole entry, looked up): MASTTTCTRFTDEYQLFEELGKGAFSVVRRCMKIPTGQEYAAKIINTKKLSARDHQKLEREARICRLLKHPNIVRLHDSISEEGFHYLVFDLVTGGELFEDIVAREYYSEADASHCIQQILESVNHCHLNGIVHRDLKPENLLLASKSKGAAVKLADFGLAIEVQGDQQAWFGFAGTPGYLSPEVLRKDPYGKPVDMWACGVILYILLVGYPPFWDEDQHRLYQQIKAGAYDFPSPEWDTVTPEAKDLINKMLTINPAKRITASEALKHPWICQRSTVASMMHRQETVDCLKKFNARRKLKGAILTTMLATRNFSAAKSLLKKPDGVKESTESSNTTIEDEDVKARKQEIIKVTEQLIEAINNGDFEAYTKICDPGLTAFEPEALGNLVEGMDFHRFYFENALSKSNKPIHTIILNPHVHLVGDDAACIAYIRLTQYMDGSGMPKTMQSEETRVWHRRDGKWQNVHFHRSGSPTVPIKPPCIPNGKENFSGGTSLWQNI

[27] = target: MAP3K11 (human) (UniProt Q16584)
[28] = target: MAPK8 (human) (UniProt P45983)
[29] = target: PAK7 (human) (UniProt Q9P286)
[30] = target: EPHB1 (human) (UniProt P54762)
[31] = target: STK39 (human) (UniProt Q9UEW8)
[32] = target: MAPK3 (human) (UniProt P27361)
[33] = target: CDK4 CCND1 (human) (UniProt P24385+P11802)
[34] = target: DYRK1B (human) (UniProt Q9Y463)
[35] = target: SIK2 (human) (UniProt Q9H0K1)
Sequence of SIK2 (human) (Q9H0K1 whole entry, looked up): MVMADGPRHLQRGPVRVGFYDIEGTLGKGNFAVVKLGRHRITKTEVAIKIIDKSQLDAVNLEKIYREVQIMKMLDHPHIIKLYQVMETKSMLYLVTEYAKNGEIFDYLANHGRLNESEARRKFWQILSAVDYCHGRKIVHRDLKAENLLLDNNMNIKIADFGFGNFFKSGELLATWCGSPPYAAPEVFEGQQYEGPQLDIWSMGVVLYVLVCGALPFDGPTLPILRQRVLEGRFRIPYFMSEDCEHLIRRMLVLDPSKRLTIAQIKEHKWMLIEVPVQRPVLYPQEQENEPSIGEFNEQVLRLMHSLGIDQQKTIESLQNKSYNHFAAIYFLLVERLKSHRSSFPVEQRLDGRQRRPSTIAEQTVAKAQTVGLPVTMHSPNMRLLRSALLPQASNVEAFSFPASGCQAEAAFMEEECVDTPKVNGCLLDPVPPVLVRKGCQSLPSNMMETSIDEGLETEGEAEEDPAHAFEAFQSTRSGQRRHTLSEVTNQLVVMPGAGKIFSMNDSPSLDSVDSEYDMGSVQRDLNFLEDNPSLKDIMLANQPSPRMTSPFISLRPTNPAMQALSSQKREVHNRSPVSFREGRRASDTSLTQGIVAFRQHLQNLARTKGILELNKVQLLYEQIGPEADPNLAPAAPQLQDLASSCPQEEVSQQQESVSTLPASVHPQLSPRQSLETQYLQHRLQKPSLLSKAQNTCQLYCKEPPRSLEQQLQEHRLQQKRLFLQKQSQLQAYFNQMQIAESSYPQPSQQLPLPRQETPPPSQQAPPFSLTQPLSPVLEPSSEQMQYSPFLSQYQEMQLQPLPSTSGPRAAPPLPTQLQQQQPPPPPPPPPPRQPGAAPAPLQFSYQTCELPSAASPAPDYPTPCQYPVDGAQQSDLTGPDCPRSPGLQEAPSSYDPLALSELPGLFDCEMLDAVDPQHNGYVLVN

[36] = target: PRKCB2 (human) (UniProt P05771)
Sequence of PRKCB2 (human) (P05771 whole entry, looked up): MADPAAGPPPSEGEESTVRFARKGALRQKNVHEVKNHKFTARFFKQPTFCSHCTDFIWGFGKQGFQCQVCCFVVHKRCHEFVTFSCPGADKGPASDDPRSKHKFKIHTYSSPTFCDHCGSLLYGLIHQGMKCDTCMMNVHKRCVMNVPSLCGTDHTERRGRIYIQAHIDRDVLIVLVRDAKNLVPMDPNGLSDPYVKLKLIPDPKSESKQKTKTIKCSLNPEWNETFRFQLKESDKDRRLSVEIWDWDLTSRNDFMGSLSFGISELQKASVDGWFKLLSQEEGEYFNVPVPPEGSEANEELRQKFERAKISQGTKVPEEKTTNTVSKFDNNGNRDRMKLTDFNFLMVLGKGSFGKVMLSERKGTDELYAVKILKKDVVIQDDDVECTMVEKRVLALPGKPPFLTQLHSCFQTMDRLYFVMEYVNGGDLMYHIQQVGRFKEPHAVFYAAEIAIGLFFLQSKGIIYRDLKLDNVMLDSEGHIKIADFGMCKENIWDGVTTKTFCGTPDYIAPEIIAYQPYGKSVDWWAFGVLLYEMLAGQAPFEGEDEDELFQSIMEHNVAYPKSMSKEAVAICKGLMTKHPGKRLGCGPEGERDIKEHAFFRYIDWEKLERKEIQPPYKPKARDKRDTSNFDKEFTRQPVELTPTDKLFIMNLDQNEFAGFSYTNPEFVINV

[37] = target: CSNK1A1 (human) (UniProt P48729)
Sequence of CSNK1A1 (human) (P48729 whole entry, looked up): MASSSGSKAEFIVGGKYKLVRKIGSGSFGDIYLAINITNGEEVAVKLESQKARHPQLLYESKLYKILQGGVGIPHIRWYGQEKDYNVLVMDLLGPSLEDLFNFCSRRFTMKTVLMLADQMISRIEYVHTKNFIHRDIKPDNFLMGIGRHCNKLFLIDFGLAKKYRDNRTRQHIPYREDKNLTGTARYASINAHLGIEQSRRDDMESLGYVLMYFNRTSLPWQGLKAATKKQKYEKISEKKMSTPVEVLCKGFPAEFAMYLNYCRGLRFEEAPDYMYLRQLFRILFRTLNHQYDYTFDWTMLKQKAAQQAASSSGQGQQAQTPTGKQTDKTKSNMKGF

[38] = target: PAK4 (human) (UniProt O96013)
[39] = target: DYRK4 (human) (UniProt Q9NR20)
[40] = target: MAPK11 (human) (UniProt Q15759)

SMILES | residual activity [1] | residual activity [2] | residual activity [3] | residual activity [4] | residual activity [5] | residual activity [6] | residual activity [7] | residual activity [8] | residual activity [9] | residual activity [10] | residual activity [11] | residual activity [12] | residual activity [13] | residual activity [14] | residual activity [15] | residual activity [16] | residual activity [17] | residual activity [18] | residual activity [19] | residual activity [20] | other results
Nc1ncnc2c1c(-c1ccc(Oc3ccccc3)cc1)cn2C1CCCC1 | 92.1% | 111% | 110% | 67.4% | 92.6% | 99.6% | 92.7% | 96.3% | 98% | 98.7% | 87% | 104% | 99.5% | 84.8% | 90.5% | 91.5% | 85.2% | 74.7% | 101% | 87.4% | residual activity [21]: 106%; residual activity [22]: 98.7%; residual activity [23]: 85.4%; residual activity [24]: 113%; residual activity [25]: 101%; residual activity [26]: 99.5%; residual activity [27]: 92.9%; residual activity [28]: 117%; residual activity [29]: 102%; residual activity [30]: 94.5%; residual activity [31]: 84.8%; residual activity [32]: 108%; residual activity [33]: 121%; residual activity [34]: 92.2%; residual activity [35]: 101%; residual activity [36]: 107%; residual activity [37]: 84.9%; residual activity [38]: 101%; residual activity [39]: 91.6%; residual activity [40]: 106%
CC[n+]1c(/C=C/N(C)c2ccccc2)n(-c2ccccc2)c2ccc(-c3nc4ccccc4s3)cc21 | 98.4% | 104% | 102% | 96.7% | 101% | 93.3% | 95.7% | 96.9% | 95.5% | 96.8% | 96.1% | 98.8% | 92.4% | 95.7% | 99.1% | 102% | 110% | 105% | 99.1% | 92.7% | residual activity [21]: 98.1%; residual activity [22]: 98.8%; residual activity [23]: 100%; residual activity [24]: 103%; residual activity [25]: 98.6%; residual activity [26]: 94%; residual activity [27]: 102%; residual activity [28]: 96.3%; residual activity [29]: 98.6%; residual activity [30]: 104%; residual activity [31]: 81.1%; residual activity [32]: 112%; residual activity [33]: 107%; residual activity [34]: 101%; residual activity [35]: 112%; residual activity [36]: 118%; residual activity [37]: 106%; residual activity [38]: 109%; residual activity [39]: 107%; residual activity [40]: 101%
c1ccc(-c2n[nH]c3c2oc2ccccc23)cc1 | 97.6% | 104% | 98% | 99.6% | 80.9% | 96.7% | 105% | 84.4% | 98.9% | 103% | 96.2% | 89.8% | 88.5% | 86.7% | 87.3% | 86.9% | 98.2% | 85.6% | 107% | 93.4% | residual activity [21]: 99.1%; residual activity [22]: 117%; residual activity [23]: 96.9%; residual activity [24]: 117%; residual activity [25]: 92.2%; residual activity [26]: 94.5%; residual activity [27]: 91.8%; residual activity [28]: 79.6%; residual activity [29]: 70.9%; residual activity [30]: 103%; residual activity [31]: 120%; residual activity [32]: 87.3%; residual activity [33]: 87.9%; residual activity [34]: 101%; residual activity [35]: 98.3%; residual activity [36]: 113%; residual activity [37]: 73.8%; residual activity [38]: 111%; residual activity [39]: 99.7%; residual activity [40]: 95.7%
